The values that follow come from paper PMC6269977, “Chemistry and Antiviral Activity of Arrabidaea pulchra (Bignoniaceae)” (Molecules, 2013).

Data set [1] concerns Human herpesvirus 1 (HSV-1). The data set can be described thus: microbe, parasite or virus in culture. The following applies: for EC50: Human alphaherpesvirus 1; for EC50 / HSV-1 EC50: viral titer TCID50/mL 2.5 × 10^6 in 48 h, NA = no activity in the assayed concentrations. Type of data set: cell-based.
For data set [2], the system named is Vaccinia virus Western Reserve (VACV-WR). Type of data set: cell-based.
Data set [3] has as its system Murine encephalomyocarditis virus (EMCV). It counts as cell-based. The following applies: viral titer TCID50/mL 1.0 × 10^6 in 48 h; NA = no activity in the assayed concentrations.
The subject of the next data set is Dengue virus 2 (DENV-2). The data set can be described thus: microbe, parasite or virus in culture. It counts as cell-based. The conditions noted are these: DENV2, viral titer TCID50/mL 1.0 × 10^4 in 72 h.
Data set [4] can be described thus: in vitro. The conditions noted are these: African green monkey.
A short description of data set [5]: in vitro. The following applies: rhesus monkey.
The test system of data set [6] is respiratory syncytial virus (RSV). The conditions noted are these: isolated from Markhamia lutea; cited from earlier work.
A further data set concerns HSV-1. The conditions noted are these: cited from earlier work.
The subject of another data set is HSV-2. The conditions noted are these: cited from earlier work.

Values after ≈ are worked out from the molar mass of the structure shown. A value given as a limit tells only on which side of the number the result lay.

Consider `Nc1nc2c(ncn2COCCO)c(=O)[nH]1` [Acyclovir, reference compound], for which it took 40 µg/mL (≈ 178 µM) to reach a half-maximal effect in data set [1] (EC50).

As for `C[C@H]1[C@H](C)CC[C@]2(C(=O)O)CC[C@]3(C)C(=CC[C@@H]4[C@@]5(C)CC[C@H](O)C(C)(C)[C@@H]5CC[C@]43C)[C@H]12` [AP 3, ursolic acid], the EC50 (as a rule, the concentration at which the effect is half-maximal) in data set [1] came out at 6.2 ± 0.1 µg/mL (≈ 13.6 µM); in the data set on Dengue virus 2 (DENV-2), 3.2 µg/mL (≈ 7.01 µM). In [1] (at concentrations as low 2 μg/mL, Figure 4A), this compound gave an HSV-1 virus inhibition of 50%. Also, the “HSV-1 EC50” value in [1] is “low activity”. Moreover, in [2], the “VACV-WR EC50” value is given as “not active”. In addition, the “EMCV EC50” value in [3] is given as “not active”. For the same compound, the values for the CC50 in “in vitro [4]” and in the data set “in vitro [5]” were 8.1 ± 0.9 µg/mL (≈ 17.7 µM) and 9.9 ± 1.3 µg/mL (≈ 21.7 µM), respectively.

For `C[C@@H]1O[C@@H](O[C@@H]2[C@@H](O)[C@H](OCCc3ccc(O)c(O)c3)O[C@H](CO)[C@H]2OC(=O)/C=C/c2ccc(O)c(O)c2)[C@H](O)[C@H](O)[C@H]1O` [AP 1, verbascoside], the “HSV-1 EC50” value in [1] is given as “no effect was observed”; in the data set on HSV-1 it was 58.0 µg/mL. Also, the “VACV-WR EC50” value in data set [2] was “not active”. In addition, the “EMCV EC50” value in data set [3] is recorded as “not active”. The compound also returned an EC50 in the data set on Dengue virus 2 (DENV-2) of 3.4 ± 0.4 µg/mL (≈ 5.44 µM). Also, the “RSV EC50” value in data set [6] is on record as 0.80 µg/mL. Moreover, in the data set on HSV-1 (previous report), the anti-herpes activity result is “had not shown anti-herpes activity”. The “HSV-2 EC50” value with HSV-2 is given as 8.9 µg/mL. In addition, the CC50 in the data set “in vitro [4]” was above 200 µg/mL; in the data set “in vitro [5]”, 12.9 ± 1.1 µg/mL (≈ 20.7 µM).
